Results on 27 compounds are retold here after patent US9096589B2, “Heteroaromatic phenylimidazole derivatives as PDE10A enzyme inhibitors” (H. Lundbeck A/S, priority 2009, dated 2015).

Each structure is given as a SMILES string.

One experiment has as its system rats.
Experiment: not given
Conditions: alone; cited from earlier work.
As to `COc1ccc(Cc2nccc3cc(OC)c(OC)cc23)cc1OC` [Papaverine, papaverine], the “catalepsy on its own” value is “did not cause catalepsy on its own”.

Still in this experiment, the particulars now being: with haloperidol; cited from earlier work.
With `COc1ccc(Cc2nccc3cc(OC)c(OC)cc23)cc1OC` [Papaverine, papaverine], the “effect on the cataleptic effect of the D2 receptor antagonist haloperidol” value is on record as “potentiated the cataleptic effect”.

Another experiment deals with rats.
Experiment: not given
Conditions: cited from earlier work.
Turning to `COc1ccc(Cc2nccc3cc(OC)c(OC)cc23)cc1OC` [Papaverine, papaverine], the “hyperactivity induced by PCP” value is given as “reduced hyperactivity”.

The target in another experiment is PDE10A (Homo sapiens (Human), UniProt Q9Y233). Nature of the experiment: PDE10A inhibition assay. It counts as biochemical.
Sequence of PDE10A (Q9Y233 716-1055): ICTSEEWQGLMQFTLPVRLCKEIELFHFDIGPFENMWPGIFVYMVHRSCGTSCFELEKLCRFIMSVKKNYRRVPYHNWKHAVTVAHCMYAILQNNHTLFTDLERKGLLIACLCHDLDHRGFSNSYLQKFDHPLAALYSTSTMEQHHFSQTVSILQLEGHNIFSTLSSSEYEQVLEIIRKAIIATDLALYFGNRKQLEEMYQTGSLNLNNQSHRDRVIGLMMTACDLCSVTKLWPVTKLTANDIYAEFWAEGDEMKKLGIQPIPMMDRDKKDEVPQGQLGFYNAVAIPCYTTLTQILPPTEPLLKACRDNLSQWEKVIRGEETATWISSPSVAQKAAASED
Details: not given
The essentials: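 Human PDE10A catalytic domain (aa 440-779) was expressed in E. coli BL21(DE3), with enzyme set to convert 20-25% of substrate. Reactions used 5 nM [3H]cAMP in 50 mM HEPES pH 7.6, 10 mM MgCl2, 0.02% Tween20 and 0.1 mg/ml BSA for 1 h at rt, read by yttrium silicate SPA. IC50 is relative to the uninhibited control.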
`C#CCn1cc(-c2cccs2)nc1CCc1nc2c(OC)ccc(C)n2n1` [8-Methoxy-5-methyl-2-[2-(1-prop-2-ynyl-4-thiophen-2-yl-1H-imidazol-2-yl)-ethyl]-[1,2,4]triazolo[1,5-a]pyridine] showed an IC50 of 4.1 nM. The same measure, in the same setting: for `CCCn1cc(-c2cccs2)nc1CCc1nc2c(OC)ccc(C)n2n1` [8-Methoxy-5-methyl-2-[2-(1-propyl-4-thiophen-2-yl-1H-imidazol-2-yl)-ethyl]-[1,2,4]triazolo[1,5-a]pyridine] the value was 1.2 nM. On the same count and under the same terms, the same measure for `COc1ccc(C)n2nc(CCc3nc(-c4cccs4)c[nH]3)nc12` [8-Methoxy-5-methyl-2-[2-(4-thiophen-2-yl-1H-imidazol-2-yl)-ethyl]-[1,2,4]triazolo[1,5-a]pyridine]: 1.1 nM; for `COc1ccc(C)n2nc(/C=C/c3nc(-c4cccs4)cn3C)nc12` [8-Methoxy-5-methyl-2-[(E)-2-(1-methyl-4-thiophen-2-yl-1H-imidazol-2-yl)-vinyl]-[1,2,4]triazolo[1,5-a]pyridine]: 2.7 nM; for `COc1ccc(C)n2nc(CCc3nc(-c4cccs4)cn3CCN3CCOCC3)nc12` [8-Methoxy-5-methyl-2-{2-[1-(2-morpholin-4-yl-ethyl)-4-thiophen-2-yl-1H-imidazol-2-yl]-ethyl}-[1,2,4]triazolo[1,5-a]pyridine]: 0.33 nM. Take `COc1ccc(C)n2nc(CCc3nc(-c4cscc4C)cn3C)nc12` [8-Methoxy-5-methyl-2-{2-[1-methyl-4-(4-methyl-thiophen-3-yl)-1H-imidazol-2-yl]-ethyl}-[1,2,4]triazolo[1,5-a]pyridine]: the IC50 stood at 3.1 nM.

The compound `COc1ccc(C)n2nc(CCc3nc(-c4ccc(C)o4)cn3C)nc12` [8-Methoxy-5-methyl-2-{2-[1-methyl-4-(5-methyl-furan-2-yl)-1H-imidazol-2-yl]-ethyl}-[1,2,4]triazolo[1,5-a]pyridine] gave an IC50 of 20 nM. For the compound `Cc1cccn2nc(CCc3nc(-c4cncs4)cn3C)nc12` [8-Methyl-2-[2-(1-methyl-4-thiazol-5-yl-1H-imidazol-2-yl)-ethyl]-[1,2,4]triazolo[1,5-a]pyridine], inhibition was half-maximal at 36 nM (IC50).

The compound `Cc1cccn2nc(CCc3nc(-c4cccs4)cn3C)nc12` [8-Methyl-2-[2-(1-methyl-4-thiophen-2-yl-1H-imidazol-2-yl)-ethyl]-[1,2,4]triazolo[1,5-a]pyridine] gave a concentration for half-maximal inhibition (IC50) of 15 nM. `Cc1cccn2nc(CCc3nc(-c4cccnc4)c[nH]3)nc12` [8-Methyl-2-[2-(4-pyridin-3-yl-1H-imidazol-2-yl)-ethyl]-[1,2,4]triazolo[1,5-a]pyridine] came in with a half-maximal inhibitory concentration (IC50) of 64 nM. Still for that read-out and setting: for `Cc1cccn2nc(CCc3nc(-c4cccs4)c[nH]3)nc12` [8-Methyl-2-[2-(4-thiophen-2-yl-1H-imidazol-2-yl)-ethyl]-[1,2,4]triazolo[1,5-a]pyridine] the value was 0.99 nM. In the case of `Cc1cccc2nc(CCc3nc(-c4cccs4)cn3C[C@@H](O)CCl)nn12` [(R)-1-Chloro-3-{2-[2-(5-methyl-[1,2,4]triazolo[1,5-a]pyridin-2-yl)-ethyl]-4-thiophen-2-yl-imidazol-1-yl}-propan-2-ol], half-maximal inhibition (IC50) required 2.8 nM.

For the compound `Cc1cccc2nc(CCc3nc(-c4cccs4)cn3C[C@@H](O)CNCCO)nn12` [(S)-1-(2-Hydroxy-ethylamino)-3-{2-[2-(5-methyl-[1,2,4]triazolo[1,5-a]pyridin-2-yl)-ethyl]-4-thiophen-2-yl-imidazol-1-yl}-propan-2-ol], the IC50 is 30 nM. Take `Cc1cccc2nc(CCc3nc(-c4cccs4)cn3C[C@@H](O)CN(C)C(C)C)nn12` [(S)-1-(Isopropyl-methyl-amino)-3-{2-[2-(5-methyl-[1,2,4]triazolo[1,5-a]pyridin-2-yl)-ethyl]-4-thiophen-2-yl-imidazol-1-yl}-propan-2-ol]: half-maximal inhibition (IC50) was put at 97 nM. This IC50 lies about 3.2-fold higher than the previous one. Compound `CCN(CC)C[C@H](O)Cn1cc(-c2cccs2)nc1CCc1nc2cccc(C)n2n1` [(S)-1-Diethylamino-3-{2-[2-(5-methyl-[1,2,4]triazolo[1,5-a]pyridin-2-yl)-ethyl]-4-thiophen-2-yl-imidazol-1-yl}-propan-2-ol] displayed an IC50 of 77 nM.

In turn, `Cc1cccc2nc(CCc3nc(-c4cccs4)cn3C[C@@H](O)CN(C)C)nn12` [(S)-1-Dimethylamino-3-{2-[2-(5-methyl-[1,2,4]triazolo[1,5-a]pyridin-2-yl)-ethyl]-4-thiophen-2-yl-imidazol-1-yl}-propan-2-ol] yielded an IC50 of 47 nM. For the compound `Cc1cccc2nc(CCc3nc(-c4cccs4)cn3C[C@@H](O)CNC(C)C)nn12` [(S)-1-Isopropylamino-3-{2-[2-(5-methyl-[1,2,4]triazolo[1,5-a]pyridin-2-yl)-ethyl]-4-thiophen-2-yl-imidazol-1-yl}-propan-2-ol], the half-maximal inhibitory concentration (IC50) was 46 nM. Still for that read-out and setting: for `CNC[C@H](O)Cn1cc(-c2cccs2)nc1CCc1nc2cccc(C)n2n1` [(S)-1-Methylamino-3-{2-[2-(5-methyl-[1,2,4]triazolo[1,5-a]pyridin-2-yl)-ethyl]-4-thiophen-2-yl-imidazol-1-yl}-propan-2-ol] the value was 70 nM.

With `Cc1cccc2nc(CCc3nc(-c4cccs4)cn3C[C@@H](O)CN(C)CCO)nn12` [(S)-1-[(2-Hydroxy-ethyl)-methyl-amino]-3-{2-[2-(5-methyl-[1,2,4]triazolo[1,5-a]pyridin-2-yl)-ethyl]-4-thiophen-2-yl-imidazol-1-yl}-propan-2-ol], the midpoint of inhibition, the IC50, lay at 16 nM. In turn, `Cc1cccc2nc(CCc3nc(-c4cccs4)cn3C[C@@H](O)CN3CCOCC3)nn12` [(S)-1-{2-[2-(5-Methyl-[1,2,4]triazolo[1,5-a]pyridin-2-yl)-ethyl]-4-thiophen-2-yl-imidazol-1-yl}-3-morpholin-4-yl-propan-2-ol] displayed an IC50 of 14 nM. Take `Cc1cccc2nc(CCc3nc(-c4cccs4)cn3C[C@@H](O)CN3CCCC3)nn12` [(S)-1-{2-[2-(5-Methyl-[1,2,4]triazolo[1,5-a]pyridin-2-yl)-ethyl]-4-thiophen-2-yl-imidazol-1-yl}-3-pyrrolidin-1-yl-propan-2-ol]: inhibition was half-maximal at 58 nM (IC50).

The compound `Cc1cc(C)n2cc(CCc3nc(-c4cccs4)cn3[C@@H](C)CO)nc2n1` [(S)-2-{2-[2-(5,7-Dimethyl-imidazo[1,2-a]pyrimidin-2-yl)-ethyl]-4-thiophen-2-yl-imidazol-1-yl}-propan-1-ol] yielded an IC50 of 8.8 nM. For the compound `Cc1cccc2nc(CCc3nc(-c4cccs4)cn3[C@@H](C)CO)nn12` [(S)-2-{2-[2-(5-Methyl-[1,2,4]triazolo[1,5-a]pyridin-2-yl)-ethyl]-4-thiophen-2-yl-imidazol-1-yl}-propan-1-ol], the half-maximal inhibitory concentration (IC50) worked out at 6.4 nM.

Compound `CNCC[C@H](O)Cn1cc(-c2cccs2)nc1CCc1nc2cccc(C)n2n1` [(S)-4-Methylamino-1-{2-[2-(5-methyl-[1,2,4]triazolo[1,5-a]pyridin-2-yl)-ethyl]-4-thiophen-2-yl-imidazol-1-yl}-butan-2-ol] displayed an IC50 of 51 nM. `Cc1cnc(C)n2nc(CCc3nc(-c4nccs4)cn3C)nc12` [,8-Dimethyl-2-[2-(1-methyl-4-thiazol-2-yl-1H-imidazol-2-yl)-ethyl]-[1,2,4]triazolo[1,5-c]pyrimidine] came in with an IC50 of 12 nM. `Cc1cccc2nc(CCc3nc(-c4cccs4)cn3C[C@@H](O)CN(C)CC#N)nn12` [[((S)-2-Hydroxy-3-{2-[2-(5-methyl-[1,2,4]triazolo[1,5-a]pyridin-2-yl)-ethyl]-4-thiophen-2-yl-imidazol-1-yl}-propyl)-methyl-amino]-acetonitrile] returned an IC50 of 8.8 nM.

The next experiment has as its system rats.
Experiment: not given
The note with it: cited from earlier work. The source holds these as a separate data set.
In the case of `COc1ccc(Cc2nccc3cc(OC)c(OC)cc23)cc1OC` [Papaverine, papaverine], the “reduction of amphetamine induced hyperactivity” value is “insignificant”.
